Laboratory results from US11434227B2, “Broad spectrum antibacterial activity of novel bisbenzimidazoles targeting topoisomerase IA and the synergistic composition of bisbenzimidazole with efflux pump inhibitors against pathogenic bacteria” (Jawaharlal Nehru University (JNU), priority 2016, dated 2022).
Values after ≈ are worked out from the molar mass of the structure shown. Read-outs that look alike come from different tables or passages of the source.

Key:
[1] = tested on: Shigella flexineri (MTCC1457); assay: Susceptibility (MIC50/MIC90), broth microdilution; format: cell-based
[2] = tested on: Mycobacterium tuberculosis H37Ra (avirulent); assay: Susceptibility of Mycobacterium tuberculosis strains (MIC90); format: cell-based
[3] = tested on: Mycobacterium tuberculosis H37Rv (virulent); assay: as above; format: cell-based
S. aureus 1016 = assay: Neutropenic thigh infection model; format: in vivo, Balb/c mice
From the text: Craig, was used in this study.

[4] = tested on: isogenic efflux deleted strains; assay: Susceptibility of isogenic efflux deleted strains versus wild type; format: cell-based, Escherichia coli; conditions: in comparison to wild type strains
M. tuberculosis = assay: Effect on virulent and avirulent strains of M. tuberculosis; format: cell-based, Mycobacterium tuberculosis
E. coli ATCC 25922 = assay: Neutropenic thigh infection model
Description: The neutropenic mice thigh infection model, fully described by. Craig, was used in this study. Female Balb/c mice (6 mice per dosing group) weighing 20-25 g were rendered neutropenic with 2 intraperitoneal injections of cyclophosphamide (150 mg/kg of body weight 4 days prior to bacterial inoculation and 100 mg/kg 1 day before inoculation) 2 h prior to bacterial inoculation. […] Bacteria were injected into the right thigh of each mouse at time zero. […] Neutropenia was defined as an absolute neutrophil count of 500 polymorphonuclear leukocytes/cm^3 of blood. The bacterial suspension was diluted to a concentration of 10^6 CFU/mL with normal saline. Then, 0.1 mL of the bacterial suspension was injected into each posterior thigh muscle 2 h after the second dose of cyclophosphamide was administered. […] Twenty-four hours after drug treatment was begun, the mice were humanely sacrificed. Right thigh muscles from each mouse were aseptically collected, homogenized and serially diluted 1:10 in phosphate buffer saline, and processed for quantitative cultures.

Enterococcus sp. (2105) = assay: Susceptibility (MIC50/MIC90), broth microdilution
Description: (§1) MICs were determined by the broth microdilution method according to CLSI methods (Clinical and Laboratory Standards Institute, 2005). Inoculants were incubated at 37° C. on cation adjusted Mueller Hinton (MH) Broth for 18 to 24 h. Compound were dissolved in media to 10 doubling dilutions from 128 to 0.125 μg/mL. All the bacterial strains were grown in 96 well plate with low evaporation lid (Falcon, Becton Dickinson) in presence of derivatives of benzimidazoles at 0.125, 0.25, 0.5, 1, 2, 4, 8, 16, 32, 64, 128, 256 μg/mL concentrations. […] Plates were read by Tecan Micro-plate Reader at 600 nm.

Enterococcus sp. (1121) = assay: Susceptibility (MIC50/MIC90), broth microdilution
Description: as §1

Enterococcus sp. (1365) = assay: Susceptibility (MIC50/MIC90), broth microdilution
Description: as §1

Enterococcus sp.(1150) = assay: Susceptibility (MIC50/MIC90), broth microdilution
Description: as §1

Enterococcus sp. (1367) = assay: Susceptibility (MIC50/MIC90), broth microdilution
Description: as §1

Enterococcus sp. (432) = assay: Susceptibility (MIC50/MIC90), broth microdilution
Description: as §1

Staphylococcus sp. (976) = assay: Susceptibility (MIC50/MIC90), broth microdilution
Description: as §1

Staphylococcus sp. (982) = assay: Susceptibility (MIC50/MIC90), broth microdilution
Description: as §1

[5] = tested on: Staphylococcus sp. (1016); assay: Susceptibility (MIC50/MIC90), broth microdilution
Description: as §1

Escherichia coli 385 = assay: Susceptibility (MIC50/MIC90), broth microdilution
Description: as §1

Escherichia coli 392 = assay: Susceptibility (MIC50/MIC90), broth microdilution
Description: as §1

[6] = tested on: Acinetobacter baumannii (MTCC1920); assay: Susceptibility (MIC50/MIC90), broth microdilution
Description: as §1

[7] = tested on: Acinetobacter baumannii (AB387); assay: Susceptibility (MIC50/MIC90), broth microdilution
Description: as §1

[8] = tested on: Acinetobacter baumannii (AB312); assay: Susceptibility (MIC50/MIC90), broth microdilution
Description: as §1

[9] = tested on: Pseudomonas aeruginosa (Ps162); assay: Susceptibility (MIC50/MIC90), broth microdilution
Description: as §1

[10] = tested on: Pseudomonas aeruginosa (MTCC1688); assay: Susceptibility (MIC50/MIC90), broth microdilution
Description: as §1

[11] = tested on: Pseudomonas aeruginosa (MTCC 366); assay: Susceptibility (MIC50/MIC90), broth microdilution; conditions: MTCC366
Description: as §1

[12] = tested on: Klebsiella planticola (MTCC 2272); assay: Susceptibility (MIC50/MIC90), broth microdilution; conditions: MTCC2272
Description: as §1

[13] = tested on: Klebsiella planticola (K1164); assay: Susceptibility (MIC50/MIC90), broth microdilution
Description: as §1

[14] = tested on: Klebsiella planticola (K235); assay: Susceptibility (MIC50/MIC90), broth microdilution
Description: as §1

[15] = tested on: Klebsiella planticola (K589); assay: Susceptibility (MIC50/MIC90), broth microdilution
Description: as §1

[16] = tested on: Salmonella typhimurium (MTCC 1251); assay: Susceptibility (MIC50/MIC90), broth microdilution; conditions: Salmonella enterica
Description: as §1

[17] = tested on: Salmonella typhimurium (St412); assay: Susceptibility (MIC50/MIC90), broth microdilution; conditions: Salmonella enterica
Description: as §1

E. coli K12 = assay: Susceptibility of E. coli K12 and mutants (MIC90); conditions: Escherichia coli
Description: as §1

E. coli K12 mutant ΔacrA = assay: Susceptibility of E. coli K12 and mutants (MIC90); conditions: Escherichia coli
Description: as §1

E. coli K12 mutant ΔemrA = assay: Susceptibility of E. coli K12 and mutants (MIC90); conditions: Escherichia coli
Description: as §1

E. coli K12 mutant ΔtolC = assay: Susceptibility of E. coli K12 and mutants (MIC90); conditions: Escherichia coli
Description: as §1

E. coli K12 mutant ΔompC = assay: Susceptibility of E. coli K12 and mutants (MIC90); conditions: Escherichia coli
Description: as §1

E. coli K12 mutant ΔompF = assay: Susceptibility of E. coli K12 and mutants (MIC90); conditions: Escherichia coli
Description: as §1

[18] = tested on: E. coli K12 mutant ΔTopIA; assay: Susceptibility of E. coli K12 and mutants (MIC90); conditions: Escherichia coli
Description: as §1

[19] = tested on: E. coli K12 mutant ΔTopIB; assay: Susceptibility of E. coli K12 and mutants (MIC90); conditions: Escherichia coli
Description: as §1

[20] = tested on: Escherichia coli (ATCC 25922); assay: Susceptibility (MIC, PAE, MBC), broth microdilution
Description: as §1

[21] = Neutropenic thigh, ATCC 25922, single i.v. bolus, 24 h
[22] = Escherichia coli, ATCC25922, Escherichia coli (ATCC 25922), Table 2

## CCCCN1CCN(c2ccc3nc(-c4ccc5[nH]c(-c6ccc(OC)c(OC)c6)nc5c4)[nH]c3c2)CC1 [SP12a, 5-(4-butylpiperazin-1-yl)-2′-(3,4-dimethoxyphenyl)-1H,1′H-2,5′-bibenzo[d]imidazole]
[1]
  MIC50: 0.24 µg/mL (≈ 0.47 µM)
  MIC90: 0.8 µg/mL (≈ 1.57 µM)
[2]
  MIC90: 7.3 µg/mL (≈ 14.3 µM)
[3]
  MIC90: 14.6 µg/mL (≈ 28.6 µM)
S. aureus 1016; Neutropenic thigh, S. aureus 1016, single i.v. bolus, 24 h
  Dose at 1.7 log reduction: 4 mg/kg bw/day
S. aureus 1016; balb/c mice neutropenia thigh model, Gram positive S1016
  bacterial load reduction: significant bacterial load reduction
[4]
  sensitisation of efflux deleted strains: more sensitised
M. tuberculosis
  effect on M. tuberculosis: effective against M. tuberculosis
E. coli ATCC 25922; [21]
  Dose at 0.8 log reduction: 2 mg/kg bw/day
  Dose at 3.4 log reduction: 4 mg/kg bw/day
E. coli ATCC 25922; balb/c mice neutropenia thigh model, gram negative ATCC25922
  bacterial load reduction: significant bacterial load reduction
Enterococcus sp. (2105)
  MIC50: 4.32 µg/mL (≈ 8.46 µM)
  MIC90: 12.2 µg/mL (≈ 23.9 µM)
Enterococcus sp. (1121)
  MIC50: < 0.25 µg/mL
  MIC90: 0.88 µg/mL (≈ 1.72 µM)
Enterococcus sp. (1365)
  MIC50: < 0.25 µg/mL
  MIC90: < 0.25 µg/mL
Enterococcus sp.(1150)
  MIC50: < 0.25 µg/mL
  MIC90: < 0.25 µg/mL
Enterococcus sp. (1367)
  MIC50: < 0.25 µg/mL
  MIC90: < 0.25 µg/mL
Enterococcus sp. (432)
  MIC50: > 128 µg/mL
  MIC90: > 128 µg/mL
Staphylococcus sp. (976)
  MIC50: < 0.25 µg/mL
  MIC90: 0.4 µg/mL (≈ 0.783 µM)
Staphylococcus sp. (982)
  MIC50: 0.5 µg/mL (≈ 0.979 µM)
  MIC90: 1 µg/mL (≈ 1.96 µM)
[5]
  MIC90: 5.7 ± 0.046 µg/mL (≈ 11.2 µM)
[5]; Staphylococcus
  MIC50: 1.2 µg/mL (≈ 2.35 µM)
  MIC90: 5.7 µg/mL (≈ 11.2 µM)
Escherichia coli 385
  MIC50: 3.9 µg/mL (≈ 7.64 µM)
  MIC90: 6.5 µg/mL (≈ 12.7 µM)
Escherichia coli 392
  MIC50: 1.5 µg/mL (≈ 2.94 µM)
  MIC90: 13.7 µg/mL (≈ 26.8 µM)
[6]
  MIC50: 128 µg/mL (≈ 251 µM)
  MIC90: 128 µg/mL (≈ 251 µM)
[7]
  MIC50: 3.6 µg/mL (≈ 7.05 µM)
  MIC90: 10.8 µg/mL (≈ 21.1 µM)
[8]
  MIC50: 4.6 µg/mL (≈ 9.01 µM)
  MIC90: 12.9 µg/mL (≈ 25.3 µM)
[9]
  MIC50: 5.22 µg/mL (≈ 10.2 µM)
  MIC90: > 128 µg/mL
[10]
  MIC50: 128 µg/mL (≈ 251 µM)
  MIC90: 128 µg/mL (≈ 251 µM)
[11]
  MIC50: < 0.25 µg/mL
  MIC90: < 0.25 µg/mL
[12]
  MIC50: 128 µg/mL (≈ 251 µM)
  MIC90: 128 µg/mL (≈ 251 µM)
[13]
  MIC50: > 128 µg/mL
  MIC90: 128 µg/mL (≈ 251 µM)
[14]
  MIC50: 3.1 µg/mL (≈ 6.07 µM)
  MIC90: 25.9 µg/mL (≈ 50.7 µM)
[15]
  MIC50: 10.3 µg/mL (≈ 20.2 µM)
  MIC90: 29.4 µg/mL (≈ 57.6 µM)
[16]
  MIC50: < 0.25 µg/mL
  MIC90: 0.25 µg/mL (≈ 0.49 µM)
[17]
  MIC50: < 0.25 µg/mL
  MIC90: 0.25 µg/mL (≈ 0.49 µM)
E. coli K12
  MIC90: 16 µg/mL (≈ 31.3 µM)
E. coli K12 mutant ΔacrA
  MIC90: 3.4 µg/mL (≈ 6.66 µM)
E. coli K12 mutant ΔemrA
  MIC90: 7.9 µg/mL (≈ 15.5 µM)
E. coli K12 mutant ΔtolC
  MIC90: 0.7 µg/mL (≈ 1.37 µM)
E. coli K12 mutant ΔompC
  MIC90: 6.7 µg/mL (≈ 13.1 µM)
E. coli K12 mutant ΔompF
  MIC90: 6.5 µg/mL (≈ 12.7 µM)
[18]
  MIC90: 3.9 µg/mL (≈ 7.64 µM)
[19]
  MIC90: 12.8 µg/mL (≈ 25.1 µM)
[20]; ATCC 25922, Table 6
  MIC90: 7.3 ± 0.024 µg/mL (≈ 14.3 µM)
[20]; Escherichia coli, ATCC25922
  MIC50: 3 µg/mL (≈ 5.87 µM)
  MIC90: 7.3 µg/mL (≈ 14.3 µM)

## CCCCN1CCN(c2ccc3nc(-c4ccc5[nH]c(-c6ccc(OCC)cc6)nc5c4)[nH]c3c2)CC1 [SP12b, 5-(4-butylpiperazin-1-yl)-2′-(4-ethoxyphenyl)-1H,1′H-2,5′-bibenzo[d]imidazole]
[1]
  MIC50: 1.24 µg/mL (≈ 2.51 µM)
  MIC90: 3.01 µg/mL (≈ 6.09 µM)
[2]
  MIC90: 1.78 µg/mL (≈ 3.6 µM)
[3]
  MIC90: 9.8 µg/mL (≈ 19.8 µM)
[4]
  sensitisation of efflux deleted strains: more sensitised
M. tuberculosis
  effect on M. tuberculosis: effective against M. tuberculosis
Enterococcus sp. (2105)
  MIC50: 3.7 µg/mL (≈ 7.48 µM)
  MIC90: 9.08 µg/mL (≈ 18.4 µM)
Enterococcus sp. (1121)
  MIC50: < 0.25 µg/mL
  MIC90: 0.92 µg/mL (≈ 1.86 µM)
Enterococcus sp. (1365)
  MIC50: < 0.25 µg/mL
  MIC90: 2 µg/mL (≈ 4.04 µM)
Enterococcus sp.(1150)
  MIC50: < 0.25 µg/mL
  MIC90: 2 µg/mL (≈ 4.04 µM)
Enterococcus sp. (1367)
  MIC50: < 0.25 µg/mL
  MIC90: 1 µg/mL (≈ 2.02 µM)
Enterococcus sp. (432)
  MIC50: > 128 µg/mL
  MIC90: > 128 µg/mL
Staphylococcus sp. (976)
  MIC50: < 0.25 µg/mL
  MIC90: 0.42 µg/mL (≈ 0.849 µM)
Staphylococcus sp. (982)
  MIC50: > 128 µg/mL
  MIC90: > 128 µg/mL
[5]; Staphylococcus
  MIC50: < 0.25 µg/mL
  MIC90: 0.92 µg/mL (≈ 1.86 µM)
Escherichia coli 385
  MIC50: 15 µg/mL (≈ 30.3 µM)
  MIC90: 27 µg/mL (≈ 54.6 µM)
Escherichia coli 392
  MIC50: 1.8 µg/mL (≈ 3.64 µM)
  MIC90: 60 µg/mL (≈ 121 µM)
[6]
  MIC50: > 128 µg/mL
  MIC90: 128 µg/mL (≈ 259 µM)
[7]
  MIC50: 12 µg/mL (≈ 24.3 µM)
  MIC90: 16 µg/mL (≈ 32.3 µM)
[8]
  MIC50: 14.6 µg/mL (≈ 29.5 µM)
  MIC90: 28.6 µg/mL (≈ 57.8 µM)
[9]
  MIC50: 40.5 µg/mL (≈ 81.9 µM)
  MIC90: 70.3 µg/mL (≈ 142 µM)
[10]
  MIC50: > 128 µg/mL
  MIC90: 128 µg/mL (≈ 259 µM)
[11]
  MIC50: 0.4 µg/mL (≈ 0.809 µM)
  MIC90: 0.8 µg/mL (≈ 1.62 µM)
[12]
  MIC50: > 128 µg/mL
  MIC90: 128 µg/mL (≈ 259 µM)
[13]
  MIC50: > 128 µg/mL
  MIC90: 128 µg/mL (≈ 259 µM)
[14]
  MIC50: 25.9 µg/mL (≈ 52.4 µM)
  MIC90: 59.5 µg/mL (≈ 120 µM)
[15]
  MIC50: 3.4 µg/mL (≈ 6.87 µM)
  MIC90: 6.8 µg/mL (≈ 13.7 µM)
[16]
  MIC50: < 0.25 µg/mL
  MIC90: 0.25 µg/mL (≈ 0.505 µM)
[17]
  MIC50: < 0.25 µg/mL
  MIC90: 0.25 µg/mL (≈ 0.505 µM)
E. coli K12
  MIC90: 32 µg/mL (≈ 64.7 µM)
E. coli K12 mutant ΔacrA
  MIC90: 3.9 µg/mL (≈ 7.88 µM)
E. coli K12 mutant ΔemrA
  MIC90: 7.4 µg/mL (≈ 15 µM)
E. coli K12 mutant ΔtolC
  MIC90: 2.8 µg/mL (≈ 5.66 µM)
E. coli K12 mutant ΔompC
  MIC90: 30.9 µg/mL (≈ 62.5 µM)
E. coli K12 mutant ΔompF
  MIC90: 30.9 µg/mL (≈ 62.5 µM)
[18]
  MIC90: 5.7 µg/mL (≈ 11.5 µM)
[19]
  MIC90: 17.8 µg/mL (≈ 36 µM)
[20]; [22]
  MIC50: 9.5 µg/mL (≈ 19.2 µM)
  MIC90: 24.9 µg/mL (≈ 50.3 µM)
